The results in this text go back to patent US20240058318A1, “DEGRADING PKCB1 TO TREAT CANCER” (Mayo Foundation for Medical Education and Research, priority 2020, published 2024).

In one data set the test system is MDAH-2774 cells. The data set is described as follows: CV proliferation assay, MDAH-2774 ovarian cancer cells. Format: cell-based. The following applies: MDAH-2774 (PKCß1 high), 1000 cells/well. The protocol: (§1) Cell proliferation rates were determined using crystal violet assays. One thousand cells per well were plated in 96 well tissue culture plates and treated the following day with a bifunctional compound or control for 7 days in replicates of 8. Cells were fixed with 25% glutaraldehyde for 10 minutes with shaking, washed 5 times with distilled water, stained with a 1% crystal violet solution (solubilized in 25% methanol) for 10 minutes, washed again 5 times and allowed to dry. De-staining was performed using […] sodium citrate in 50% ethanol followed by quantification using a 96 well spectrophotometer set at an absorbance of 550 nm.
(§2) Based on the potent anti-proliferative activity of ENDX-PROTACs TC-Pr-006, TC-Pr-007, TC-Pr -008, and TC-Pr -009 in TNBC cells, the efficacy of these compounds for inhibiting the growth of ovarian cancer cells was tested. This analysis utilized KURAMOCHI cells, which represent the high-grade serous subtype (the most malignant form that accounts for 70% of all ovarian cancers and associates with poor clinical outcome) and MDAH-2774 cells, which represent endometrioid ovarian cancer and accounts for 20% of all ovarian cancer. PKCβ1 was confirmed to be expressed in both ovarian cancer cell line models, with MDAH-2774 cells expressing higher amounts of PKCβ1 compared to KURAMOCHI cells (FIG. 5A).

A further data set relates to KURAMOCHI cells. Nature of the data set: CV proliferation assay, KURAMOCHI ovarian cancer cells. Format: cell-based. Particulars: KURAMOSHI (PKCß1 low), 1000 cells/well. The protocol: as §1, §2
Another data set deals with MDAMB436 cells. Nature of the data set: Crystal violet (CV) proliferation assay, MDAMB436. The data set is classed as cell-based. The following applies: MDAMB436 (PKCß1 low, Rb negative), 2000 cells. The protocol:
(§3) Cell proliferation rates were determined using crystal violet assays. […] Cells were fixed with 25% glutaraldehyde for 10 minutes with shaking, washed 5 times with distilled water, stained with a 1% crystal violet solution (solubilized in 25% methanol) for 10 minutes, washed again 5 times and allowed to dry. De-staining was performed using […] sodium citrate in 50% ethanol followed by quantification using a 96 well spectrophotometer set at an absorbance of 550 nm.

The next data set relates to BT549 cells. The data set is described as follows: Crystal violet (CV) proliferation assay, BT549. Format: cell-based. Particulars: BT549 (PKCß1 high, Rb negative), 2000 cells. The protocol: as §3
The next data set relates to MDAMB231 cells. The data set is described as follows: Crystal violet (CV) proliferation assay, MDAMB231. The data set is classed as cell-based. Particulars: MDAMB231 (PKCß1 high, Rb positive), 2000 cells. The protocol: as §3
Data set [1] relates to Rb-proficient (MDAMB231) and Rb-deficient (BT549 and MDAMB436) TNBC cells. Nature of the data set: CV proliferation assay, TNBC cells (statements across lines). The data set is classed as cell-based. The following applies: for induction of apoptosis: MDAMB231 and BT549 cells (FIG. 4A and TABLE 1); for inhibition of growth of TNBC cells: MDAMB231, BT549, MDAMB436, CV assay. The protocol:
as §1
as §1, with “using CV” for “using crystal violet”, “assays. Two” for “assays. One”, “thousand (2000) or 4000” for “thousand”, “for 6” for “for 7”, “of 6.” for “of 8.”

A further data set has as its target T1, PKCβ1 (Homo sapiens, UniProt P05771).
T1 construct: western blots showing expression of PKCβ1 in MCF7AC1 cells treated with 1 μM concentration of the ENDX-PROTACs or ENDX; endogenous in cells; host or cells: MCF7AC1 (ER+ breast cancer cells)
The data set is described as follows: Western blot, PKCβ1 expression in MCF7AC1 cells. Format: cell-based. The following applies: 1 μM, within 72 hours, drugs replenished every 24 hours. The protocol: For western blotting analysis, cells were treated with vehicle (DMSO) or 1 μM of the indicated ENDX-PROTAC's or parent drug ENDX for 24, 48 and 72 hours with the drugs replenished every 24 hours. 25 μg of protein lysates were run on 10% Bis-Tris XT Criterion precast SDS-PAGE gels and transferred on to PVDF membrane. Following blocking with TB ST-5% milk, the membranes were probed with primary antibodies (1:500 — 1:2000 dilutions) for PKCβ1 (Abcam #136917), ERα (SC #8002), E2F1 (SC #251) and Actin (CS#8457) in TBST-5% BSA and secondary antibodies (1:2000 dilution) in TBST-5% milk. Membranes were developed using chemiluminescent WestPico or WestFemto detection solutions on the Li-Cor Imaging system.
For orientation: In western blotting, separated proteins are transferred to a membrane and probed.

Data set [2] relates to PKCβ1, E2F1, and Cyclin D1. The data set is described as follows: Western blot, BT549 and MDAMB436 cells (Example 6). The data set is classed as cell-based. Particulars: 1 μM, 24, 48, 72 hours. The protocol: TNBC BT549 and MDAMB436 cells were cultured in phenol-red free DMEM/F12 medium supplemented with 10% fetal bovine serum (FBS) and 1% AA. On day 1, cells were plated at a density of 2×10^5 BT549 cells or 4×10^5 MDAMB436 cells in a 6-well plate (two wells per treatment). The next day, cells were treated with DMSO, 1 μM Pr-9 (positive control), 1 μM Pr-9-1, 1 μM Pr-9-4, or 1 μM ENDX (negative control). Radioimmunoprecipitation Assay (RIPA) protein lysates were collected 24, 48, and 72 hours after treatment.
For western blot analysis, […] of protein lysates were run on Criterion precast 10% Bis-Tris gel, transferred to PVDF membrane, incubated in TBST-5% milk for one hour, and then incubated overnight with PKCβ1 (SC8049, mouse, 1:200), E2F1 (SC251, mouse, 1:250), Cyclin D1 (CS2978, rabbit, 1:1000), or Actin (Sigma A2228, mouse, 1:10,000 or CS8457, rabbit, 1:2000) primary antibodies in TBST-5% BSA solution. Membranes were washed in TBS-T, incubated for one-hour in HRP-linked anti-rabbit or anti-mouse secondary antibodies in TBST-5% milk, and washed in TBS-T. Bands were developed using west-pico or west-femto chemiluminescent substrate reagents.

A further data set concerns MCF7AC1 cells. Nature of the data set: CV proliferation assay, ER+ MCF7AC1. The data set is classed as cell-based. The protocol:
as §1
as §1, with “using CV” for “using crystal violet”, “assays. Two” for “assays. One”, “thousand (2000) or 4000” for “thousand”, “for 6” for “for 7”, “of 6.” for “of 8.”

Data set [3] is described as follows: Pharmacokinetics in mice, plasma by UPLC-MS/MS. The data set is classed as in vivo, female CD1 mice. Particulars: for Concentration ENDX PROTAC 9: PO 10 mg/kg, mouse plasma, individual samples. The protocol:
ENDX PROTAC 7 and PROTAC 9 pharmacokinetics were characterized in female CD1 mice. Blood samples were collected from mice anesthetized under isoflurane via retro-orbital eye bleed into tubes containing EDTA and immediately chilled on ice. NaF was added to the EDTA collection tubes to help stabilize the drug in whole blood for the second IV and IP studies with ENDX PROTAC 9, and for the IV and oral studies with PROTAC 7. Plasma and red blood cells were separated immediately by centrifugation in a refrigerated centrifuge at 4° C. The plasma was transferred to a separate tube and immediately frozen at −20° C.
For IV dosing, ENDX PROTAC 9 was dissolved in 10% DMSO, 10% PEG 400, and 80% normal saline for a final concentration of 0.2 mg/mL ENDX PROTAC 9 for the 1 mg/kg IV doses. ENDX PROAC 7 was dissolved in 15% DMSO, 9.44% PEG400, and […] normal saline for a final concentration of 0.19 mg/mL for the 1 mg/kg IV doses. Blood samples (3 mice per time-point) were collected 5 minutes, 15 minutes, 0.5 hour, 1 hour, 2 hours, 4 hours, 8 hours, and 24 hours after administration of the ENDX PROTAC. A second IV study was performed for ENDX PROTAC 9 in which blood samples (3 mice per time-point) were collected 5 minutes, 15 minutes, 1 hour, and 2 hours after administration of ENDX PROTAC 9. For oral dosing, ENDX PROTAC 9 (10 mg/kg) and ENDX PROTAC 7 (10 mg/kg) were suspended in 1 mM ascorbic acid:PEG400, 1:1 v/v for a final concentration of 1.0 mg/mL ENDX PROTAC. Blood samples (three mice per time-point) were collected 15 minutes, 0.5 hour, 1 hour, 2 hours, 4 hours, 6 hours, 8 hours, and 24 hours after administering the ENDX PROTAC. For LP. dosing, ENDX PROTAC 9 (4 mg/kg) was prepared in 1 mM ascorbic acid:PEG400, 1:1 v/v for a final concentration of 0.4 mg/mL ENDX PROTAC 9. Blood samples (three mice per time-point) were collected 15 minutes, 0.5 hour, 1 hour, 2 hours, 4 hours, 6 hours, 8 hours, and 24 hours after administration. Plasma concentrations of ENDX PROTAC 7 and 9 were measured using UPLC-MS/MS.

Entries after “also recorded” stand apart in the source; their conditions may differ.

As usually defined, the IC50 is the concentration that inhibits the measured activity by half. A high value points to weaker potency.

T1 sequence (P05771 whole entry): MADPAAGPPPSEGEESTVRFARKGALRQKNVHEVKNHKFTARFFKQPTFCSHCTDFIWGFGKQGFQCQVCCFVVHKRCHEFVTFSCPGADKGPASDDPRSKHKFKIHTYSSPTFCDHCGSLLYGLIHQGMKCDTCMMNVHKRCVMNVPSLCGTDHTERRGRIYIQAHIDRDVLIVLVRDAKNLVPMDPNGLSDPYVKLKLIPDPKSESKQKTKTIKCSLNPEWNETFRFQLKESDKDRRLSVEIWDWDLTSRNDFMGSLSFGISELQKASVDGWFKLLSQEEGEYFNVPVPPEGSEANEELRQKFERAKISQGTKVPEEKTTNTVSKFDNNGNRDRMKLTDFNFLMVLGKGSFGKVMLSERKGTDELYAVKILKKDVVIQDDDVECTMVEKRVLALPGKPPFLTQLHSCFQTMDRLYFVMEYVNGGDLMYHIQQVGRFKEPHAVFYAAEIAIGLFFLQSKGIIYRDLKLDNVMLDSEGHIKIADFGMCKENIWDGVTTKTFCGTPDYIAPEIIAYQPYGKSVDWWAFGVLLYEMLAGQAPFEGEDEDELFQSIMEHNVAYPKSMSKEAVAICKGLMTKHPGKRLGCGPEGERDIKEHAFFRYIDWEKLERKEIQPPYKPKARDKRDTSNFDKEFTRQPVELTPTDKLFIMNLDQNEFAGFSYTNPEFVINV

As to `CC/C(=C(\c1ccc(O)cc1)c1ccc(OCCN(C)C(=O)COCCOCCNC(=O)c2cccc3c2CN([C@H]2CCC(=O)NC2=O)C3=O)cc1)c1ccccc1` [TC-Pr-003], the “Approximate IC50 (result in words)” value with MDAH-2774 cells and in the data set with KURAMOCHI cells was “No killing” each time. Moreover, the “IC50 (result in words)” value in the data set with MDAMB436 cells, in the data set with BT549 cells and with MDAMB231 cells was “No major killing” in each case.

On to `CC/C(=C(\c1ccc(O)cc1)c1ccc(OCCN(C)C(=O)CCOCCNC(=O)c2ccc3c(c2)CN([C@H]2CCC(=O)NC2=O)C3=O)cc1)c1ccccc1` [TC-Pr-005], for which the IC50 is 100 to 1000 nM in the data set with MDAMB436 cells, > 10000 nM with BT549 cells and > 10000 nM with MDAMB231 cells.

As for `CC/C(=C(\c1ccc(O)cc1)c1ccc(OCCN(C)C(=O)CCOCCNC(=O)Cc2ccc3c(c2)CN([C@H]2CCC(=O)NC2=O)C3=O)cc1)c1ccccc1` [TC-Pr-008], the induction of apoptosis entry in data set [1] is “induced apoptosis”. Also, the values for the IC50 with MDAMB436 cells, with BT549 cells and with MDAMB231 cells were 74 nM, 225 nM and 131 nM, respectively. Moreover, the PKCβ1 polypeptide degradation entry at PKCβ1 was “rapidly degraded PKCβ1 polypeptides”.

In the case of `CC/C(=C(\c1ccc(O)cc1)c1ccc(OCCN(C)C(=O)COCCOCCN(C)C(=O)Cc2ccc3c(c2)CN(C2CCC(=O)NC2=O)C3=O)cc1)c1ccccc1` (centres unmarked) [Pr-9-1], the “impact on PKCβ1, E2F1, and Cyclin D1 protein expression” value in data set [2] is “lack of impact”. In addition, the “inhibition of growth of TNBC cells” value in data set [1] is reported as “did not inhibit growth of MDAMB231, BT549, or MDAMB436 TNBC cells as effectively”. The “inhibition of growth of ER+ MCF7AC1 cells” value with MCF7AC1 cells is listed as “inhibited growth of ER+ MCF7AC1 cells”.

As for `CC/C(=C(\c1ccc(O)cc1)c1ccc(OCCN(C)C(=O)COCCNC(=O)c2cccc3c2CN([C@H]2CCC(=O)NC2=O)C3=O)cc1)c1ccccc1` [TC-Pr-001], 10000 nM corresponded to half-maximal inhibition with MDAMB436 cells (IC50). For the same molecule, the “IC50 (result in words)” value with BT549 cells and with MDAMB231 cells was “No major killing” throughout.

Consider `CCC(=C(c1ccc(O)cc1)c1ccc(OCCN(C)C(=O)COCCOCCNC(=O)Cc2ccc3c(c2)CN(C2CCC(=O)NC2=O)C3=O)cc1)c1ccccc1` (centres unmarked) [TC-Pr-009, 2-[2-(2-2-[2-(2,6-dioxopiperidin-3-yl)-1-oxo-2,3-dihydro-1H-isoindo1-5-yl]acetamidoethoxy)ethoxy]-N-(2-4-[1-(4-hydroxyphenyl)-2-phenylbut-1-en-1-yl]phenoxyethyl)-N-methylacetamide], for which the PKCβ1 protein levels entry in data set [2] is recorded as “altered to varying extent”. In addition, the “protein levels of E2F1 and Cyclin D1” value in data set [2] (listed as Pr-9) is given as “clearly reduced by 48 hours; also recorded: reduced protein levels”. Also, in data set [1], the induction of apoptosis entry is “induced apoptosis”. Moreover, on PKCβ1, the PKCβ1 polypeptide degradation entry is on record as “rapidly degraded PKCβ1 polypeptides”. Further, the “Concentration ENDX PROTAC 9” value in [3] (120 minutes, listed as ENDX PROTAC 9, 10 mg/kg) is recorded as “BLD*”; in data set [3] (360 minutes, listed as ENDX PROTAC 9, 10 mg/kg) it was “BLD”; in [3] (480 minutes, listed as ENDX PROTAC 9, 10 mg/kg), “BLD”; in data set [3] (1440 minutes), “BLD”. In data set [3] (mice, I.V. 1 mg/kg, second study, NaF added to EDTA tubes), the “time of peak plasma concentration” value worked out at 5 min. Moreover, the “stability in whole blood” value in data set [3] (mouse whole blood, comparison of IV studies with and without NaF) is given as “unstable in whole blood”.

As to `CC/C(=C(\c1ccc(O)cc1)c1ccc(OCCN(C)C(=O)COCCO[C@@H]2CCN(C(=O)Cc3ccc4c(c3)CN(C3CCC(=O)NC3=O)C4=O)C2)cc1)c1ccccc1` (some centres unmarked) [Pr-9-4], the “impact on PKCβ1, E2F1, and Cyclin D1 protein expression” value in data set [2] is “lack of impact”. Further, in [1], the “inhibition of growth of TNBC cells” value is “did not inhibit growth of MDAMB231, BT549, or MDAMB436 TNBC cells as effectively”. The “inhibition of growth of ER+ MCF7AC1 cells” value with MCF7AC1 cells is recorded as “inhibited growth of ER+ MCF7AC1 cells”.

The molecule `CC/C(=C(\c1ccc(O)cc1)c1ccc(OCCN(C)C(=O)COCCNC(=O)c2ccc3c(c2)CN([C@H]2CCC(=O)NC2=O)C3=O)cc1)c1ccccc1` [TC-Pr-004] registered an IC50 in the data set with MDAMB436 cells of 10000 nM. The entries for the “IC50 (result in words)” value with BT549 cells and in the data set on MDAMB231 cells were “No major killing,” and “No major killing”, respectively.

For the molecule `CC/C(=C(\c1ccc(O)cc1)c1ccc(OCCN(C)C(=O)CCOCCNC(=O)c2cccc3c2CN([C@H]2CCC(=O)NC2=O)C3=O)cc1)c1ccccc1` [TC-Pr-002], the “IC50 (result in words)” value in the data set on MDAMB436 cells, with BT549 cells and in the data set on MDAMB231 cells was “No major killing” throughout.
